SMILES: CCOC(=O)CCCCCOC(=O)c1c(I)c(NC(C)=O)c(I)c(NC(C)=O)c1I [PH-50, 6-ethoxy-6-oxohexy-3,5-bis(acetylamino)-2,4,6-triiodobenzoate]
- half-life in the vascular structures (at functionally active concentrations, until metabolized by the liver): 30 to 60 min
- route of excretion (in vivo): excreted from the body via the hepatic system rather than the renal system

Reference: patent publication US20040076586A1, “Compositions and methods for delivering pharmaceutically active agents using nanoparticulates” (priority 2002, published 2004)
